Source: patent US8252543B2, “Method for detecting candidate alzheimer's disease drug” (Tomohiro Chiba, priority 2006, dated 2012)
“Also recorded” adds a separate entry of the source. Where no end group is shown, it is not given here.

B1: CNTF: ciliary neurotrophic factor (protein, UniProt P26441 1-200, looked up)
Ciliary neurotrophic factor: MAFTEHSPLTPHRRDLCSRSIWLARKIRSDLTALTESYVKHQGLNKNINLDSADGMPVASTDQWSELTEAERLQENLQAYRTFHVLLARLLEDQQVHFTPTEGDFHQAIHTLLLQVAAFAYQIEELMILLEYKIPRNEADGMPINVGDGGLFEKKLWGLKVLQELSQWTVRSIHDLRFISSHQTGIPARGSHYIANNKKM

Experiments:
STAT3 [1] = experiment: STAT3 phosphorylation in mouse brain after transnasal Colivelin (anti-phospho-STAT3 immunohistochemistry); assay type: in vivo; details: mice, transnasal twice at 24 hours-intervals, brain collected 30 minutes after final administration, vs vehicle
Experimental: (§1) To examine the ability of Colivelin to phosphorylate STAT3 in vivo, a solvent (FIGS. 3A and 3C) or Colivelin (FIGS. 3B and 3D) was administered transnasally to mice twice at 24 hours-intervals. Brain samples were collected 30 minutes after the final administration, and then fresh frozen sections were prepared therefrom. The sections were then stained with an anti-phospho-STAT3 antibody. […] To examine the effect of Colivelin to phosphorylate STAT3 in vitro, PC12 cells were treated with a vehicle (MQ), CNTF, IL-6, Humanin (HN), D-Ser14-HN (D-14), and Colivelin (Col) for […] for stimulation. Phosphorylated STAT3 and total STAT3 were detected by an immunoblot method (FIG. 3E).
Immunohistochemical analysis was performed as described in the document (Yamada M et al., Behav Brain Res (2005) 164: 139-146; Chiba T et al., J Neurosci (2005) 25: 10252-10261). Mice were transcardially perfused with phosphate buffered saline (PBS) and then perfused with 4% paraformaldehyde (PFA). Paraffine-embedded sections or fresh frozen sections, each having a thickness of 10 μm, were prepared. […]
We confirmed STAT3 activation in the brains of mice to which Colivelin had been nasally administered twice every 24 hours (FIGS. 3A-D). […] After 3 weeks of administration (administered every other day), their cognitive functions were analyzed by YM, water-finding task (WFT), and elevated-plus maze (EPM). […]

STAT3 [2] = experiment: Anti-phospho-STAT3 staining of hippocampus of Tg2576 and wild-type mice after Colivelin administration; assay type: in vivo; details: for STAT3 phosphorylation in Tg2576 hippocampus (anti-phospho-STAT3 staining): Tg2576 mice after 3 weeks nasal administration
Experimental: The brain sections of Tg2576 mice to which Colivelin had been administered were collected, paraffin-embedded samples were prepared therefrom, and then anti-phospho-STAT3 staining was performed. FIGS. 5A and 5B denote wild-type mice to which a vehicle had been administered; FIGS. 5C and 5D denote wild-type mice to which Colivelin had been administered; FIGS. 5E and 5F denote Tg2576 to which the vehicle had been administered; and FIGS. 5G and 5H denote the hippocampus of Tg2576 to which Colivelin had been administered.
Immunohistochemical analysis was performed as described in the document (Yamada M et al., Behav Brain Res (2005) 164: 139-146; Chiba T et al., J Neurosci (2005) 25: 10252-10261). Mice were transcardially perfused with phosphate buffered saline (PBS) and then perfused with 4% paraformaldehyde (PFA). Paraffine-embedded sections or fresh frozen sections, each having a thickness of 10 μm, were prepared. Immunohistochemical detection was performed with anti-phospho-STAT3 antibody (1:100 dilution). Staining images were visualized with the ABC method (Vectastain Elite Kit, Vector, Calif. U.S.A.) or Tyramide signal enhancer kit (Perkin-Elmer).
We confirmed STAT3 activation in the brains of mice to which Colivelin had been nasally administered twice every 24 hours (FIGS. 3A-D). […] We also confirmed STAT3 phosphorylation in an in vitro experiment using PC12 cells. […] To confirm the therapeutic effect of STAT3 activation, an experiment (nasal administration of Colivelin to mice) was conducted for Tg2576 mice, which had been tested by Y-maze test (YM) and confirmed to have memory disorder at 15 months of age (FIG. 4A, left panel). After 3 weeks of administration (administered every other day), their cognitive functions were analyzed by YM, water-finding task (WFT), and elevated-plus maze (EPM). […] We performed phospho-STAT3 immunostaining using the brains of these mice (FIG. 5). We observed significant loss of phospho-STAT3 immunoreactivity in the control Tg2576 mice to which the vehicle had been administered, compared with the wild-type mice.

Tg2576 mice [3] = experiment: Water-finding task (WFT) in Tg2576 mice; assay type: in vivo; details: nasal administration for 3 weeks (every other day)
Experimental: (§2) Tg2576 mice and wild-type control mice at 15 months of age were tested by Y-maze test (YM) (FIG. 4A, left). […] Mice were then subjected to nasal administration of Colivelin or a vehicle for 3 weeks. Subsequently, mice were again tested by Y-maze test. […] However, Colivelin administration seemed to ameliorate tendencies observed in Tg2576 to which the vehicle had been administered, such as delay in transfer latency, shortened 1 stay, and prolonged time spent in open arm (difficult to fear).
(§3) Y-maze test (YM) was performed as described in the document (Yamada M et al., Behav Brain Res (2005) 164: 139-146). The apparatus for YM is composed of three grey plastic arms (40 cm long, 12 cm high, 3 cm wide at the bottom, and 10 cm wide at the top). Mice were each allowed to explore the maze freely under observation for 8 minutes. Spontaneous alternation behavior % (SA %) is an indication of spatial working memory and is calculated using a ratio of the arm choices differing from the previous two choices to total choices during the run. […] The time between the onset of exploration and entering to the alcove (Entering latency), initiation of drinking from the water tube (Drinking latency), and the number of grid-line crossing during the test were measured Elevated-plus maze (EPM) was performed as described in the document (Kawasumi M et al., Eur J Neurosci (2004) 19: 2826-2838). […]

STAT3 [4] = details: reported in Hashimoto 2005, Chiba 2005; cited from earlier work
Tg2576 mice [5] = experiment: Y-maze test (YM) in Tg2576 mice; assay type: in vivo; details: Tg2576 mice 15 months of age, nasal administration for 3 weeks (every other day)
Experimental: as §2, §3

STAT3 [6] = experiment: STAT3 phosphorylation in PC12 cells (immunoblot); assay type: cell-based; details: CNTF 50 ng/ml, IL-6 50 ng/ml, Colivelin 100 pM
Experimental: as §1
PC12 cells were cultured in DNEM (Wako) containing 10% serum (10%-DMEM). For phosphorylation analysis, PC12 cells (cultured at 1.6×10^5 cells/well in a 6-well plate containing serum-free DMEM for 24 hours) were stimulated with a ciliary neurotrophic factor (CNTF, 50 ng/ml), interleukin-6 (IL-6, 50 ng/ml), HN ([…], D-Ser14-HN (D-14, 10 μM, and Colivelin (100 pM) for 15 minutes. Cells were rinsed once with PBS and then lysed in a buffer solution containing phosphatase inhibitors (50 mM Tris HCl [pH7.4], 150 mM NaCl, 1% Triton-X 100, protease inhibitors, 1 mM EDTA, and phosphatase inhibitor cocktails 1 and 2 [Sigma]). Collected samples were separated by normal SDS-PAGE and were then electrically blotted onto PVDF membranes. Detection was performed using an anti-phospho-STAT3 (1:500 dilution) antibody and horseradish peroxidase (HRP)-labeled anti-rabbit IgG antibody (BioRad Laboratories, Hercules, Calif., U.S.A.). Immunoreactive bands were visualized using ECL Western Blotting Detection Reagents (Amersham Bioscience, Uppsala, Sweden). Immunoreactive bands corresponding to total-STAT3 antibody (1:3000 dilution) were subjected to detection on the identical membrane stripped and then determined to be controls.

Tg2576 mice [7] = experiment: Elevated-plus maze (EPM) in Tg2576 mice; assay type: in vivo; details: nasal administration for 3 weeks (every other day)
Experimental: as §2, §3

Molecule | STAT3 phosphorylation in cerebral cortex (anti-phospho-STAT3 staining) (STAT3 [1]) | STAT3 phosphorylation in hippocampus (anti-phospho-STAT3 staining) (STAT3 [1]) | STAT3 phosphorylation in Tg2576 hippocampus (anti-phospho-STAT3 staining) (STAT3 [2]) | STAT3 phosphorylation in Tg2576 hippocampus (anti-phospho-STAT3 staining) (STAT3 [2]; listed as Coliverlin) | STAT3 phosphorylation levels in wild-type hippocampus (anti-phospho-STAT3 staining) (STAT3 [2]; wild-type mice after Colivelin administration) | WFT indices of memory including drinking latency, entering latency, and crossing (Tg2576 mice [3]) | In vitro STAT3 activation / suppression of cell death (STAT3 [4]) | Spontaneous alternation behavior % (SA %), spatial working memory (Tg2576 mice [5]) | STAT3 phosphorylation (phosphorylated STAT3 vs total STAT3, immunoblot) (STAT3 [6]) | EPM (transfer latency, 1st stay, time spent in open arms) (Tg2576 mice [7])
SALLRSIPAPAGASRLLLLTGEIDLP [Colivelin] | no significant changes were observed; also recorded: no significant differences were confirmed | Significant STAT3 phosphorylation was observed; also recorded: Hippocampus-predominant STAT3 phosphorylation | levels close to those in the case of wild-type mice to which the vehicle had been administered | recovery of phospho-STAT3 immunoreactivity | slightly increased | significant amelioration was observed; also recorded: improvement in cognitive functions was confirmed | activates in vitro STAT3 so as to suppress cell death | significantly improved; also recorded: improvement in cognitive functions was confirmed | STAT3 had been phosphorylated; also recorded: STAT3 is phosphorylated | No significant differences were observed; also recorded: no significant changes were observed
IL-6: interleukin-6 |  |  |  |  |  |  |  |  | STAT3 had been phosphorylated; also recorded: STAT3 is phosphorylated | 
B1 |  |  |  |  |  |  |  |  | STAT3 had been phosphorylated; also recorded: STAT3 is phosphorylated | 
